In patent US8895585B2, “Nicotinamide derivative or salt thereof” (FUJIFILM Corporation, priority 2010, dated 2014):

target: T1, glutathione S-transferase (GST)-fused full-length human Syk protein (Homo sapiens, UniProt P43405); experiment: Syk enzyme assay; type: biochemical; conditions: Syk enzyme assay, Test Example 1; read-out: IC50 of Syk-inhibitory activity
T1 construct: (GST)-fused full-length human Syk protein; GST (glutathione S-transferase); purchased Carna Biosciences
In short: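 IC50 values come from a time-resolved FRET readout (615 and 665 nm) of substrate phosphorylation, measured after an EDTA stop and 1 h antibody binding. The kinase reaction ran 40 min at room temperature with 27 μM ATP and 0.4 μM biotin-peptide, following a 15 min compound preincubation with baculovirus-made GST-full-length human Syk.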

IC50 [nM] | Compound
100 to 1000 | COc1cc(Nc2nc(NCCc3c[nH]c4ccccc34)c(F)cc2C(N)=O)cc(OC)c1 [Example 020-002]
100 to 1000 | CNc1nc(Nc2cc(OC)cc(OC)c2)c(C(N)=O)cc1F [Example 022-008]
100 to 1000 | CS(=O)(=O)Nc1cncc(Nc2nc(NC3CCCCC3N)c(F)cc2C(N)=O)c1 (centres unmarked) [Example 027-006]
10 to 50 | NC(=O)c1cc(F)c(NC2CCCCC2N)nc1Nc1cncc(NC(=O)c2ccccc2Cl)c1 (centres unmarked) [Example 027-007]
10 to 50 | NC(=O)c1cc(F)c(NC2CCCCC2N)nc1Nc1cncc(NC(=O)c2cccc(Cl)c2)c1 (centres unmarked) [Example 027-008]
10 to 50 | NC(=O)c1cc(F)c(NC2CCCCC2N)nc1Nc1cncc(NC(=O)c2ccc(Cl)cc2)c1 (centres unmarked) [Example 027-009]
100 to 1000 | NC(=O)c1cc(F)c(NC2CCCCC2N)nc1Nc1cncc(NC(=O)c2ccc(OC(F)(F)F)cc2)c1 (centres unmarked) [Example 027-016]
50 to 100 | NC(=O)c1cc(F)c(NC2CCCCC2N)nc1Nc1cncc(NC(=O)c2ccc(Cl)cc2Cl)c1 (centres unmarked) [Example 027-018]
10 to 50 | COc1ccc(C(=O)Nc2cncc(Nc3nc(NC4CCCCC4N)c(F)cc3C(N)=O)c2)c(OC)c1 (centres unmarked) [Example 027-019]
10 to 50 | NC(=O)c1cc(F)c(NC2CCCCC2N)nc1Nc1cncc(NC(=O)c2cccnc2)c1 (centres unmarked) [Example 027-021]
10 to 50 | NC(=O)c1cc(F)c(NC2CCCCC2N)nc1Nc1cncc(NC(=O)c2ccncc2)c1 (centres unmarked) [Example 027-022]
50 to 100 | Cc1ccccc1C(=O)Nc1cncc(Nc2nc(NC3CCCCC3N)c(F)cc2C(N)=O)c1 (centres unmarked) [Example 027-023]
10 to 50 | COc1ccccc1C(=O)Nc1cncc(Nc2nc(NC3CCCCC3N)c(F)cc2C(N)=O)c1 (centres unmarked) [Example 027-024]
10 to 50 | CCOc1ccccc1C(=O)Nc1cncc(Nc2nc(NC3CCCCC3N)c(F)cc2C(N)=O)c1 (centres unmarked) [Example 027-025]
50 to 100 | NC(=O)c1cc(F)c(NC2CCCCC2N)nc1Nc1cncc(NC(=O)c2ccccc2OC(F)(F)F)c1 (centres unmarked) [Example 027-026]
10 to 50 | NC(=O)c1cc(F)c(NC2CCCCC2N)nc1Nc1cncc(NC(=O)c2cccc(F)c2)c1 (centres unmarked) [Example 027-027]
10 to 50 | COc1cccc(C(=O)Nc2cncc(Nc3nc(NC4CCCCC4N)c(F)cc3C(N)=O)c2)c1 (centres unmarked) [Example 027-028]
10 to 50 | NC(=O)c1cc(F)c(NC2CCCCC2N)nc1Nc1cncc(NC(=O)c2ccc(F)cc2F)c1 (centres unmarked) [Example 027-029]
< 10 | NC(=O)c1cc(F)c(NC2CCCCC2N)nc1Nc1cncc(NC(=O)c2cccs2)c1 (centres unmarked) [Example 027-031]
< 10 | NC(=O)c1cc(F)c(NC2CCCCC2N)nc1Nc1cncc(NC(=O)c2ccsc2)c1 (centres unmarked) [Example 027-032]
10 to 50 | NC(=O)c1cc(F)c(NC2CCCCC2N)nc1Nc1cncc(NC(=O)c2ccc3c(c2)OCO3)c1 (centres unmarked) [Example 027-034]
10 to 50 | NC(=O)c1cc(F)c(NC2CCCCC2N)nc1Nc1cncc(NC(=O)c2ccc3c(c2)OCCO3)c1 (centres unmarked) [Example 027-035]
10 to 50 | NC(=O)c1cc(F)c(NC2CCCCC2N)nc1Nc1cncc(NC(=O)c2ccc3occc3c2)c1 (centres unmarked) [Example 027-037]
10 to 50 | NC(=O)c1cc(F)c(NC2CCCCC2N)nc1Nc1cncc(NC(=O)c2ccc3sccc3c2)c1 (centres unmarked) [Example 027-038]
10 to 50 | NC(=O)c1cc(F)c(NC2CCCCC2N)nc1Nc1cncc(NC(=O)c2csc3ccccc23)c1 (centres unmarked) [Example 027-039]
10 to 50 | NC(=O)c1cc(F)c(NC2CCCCC2N)nc1Nc1cncc(NC(=O)c2cc3ccccc3s2)c1 (centres unmarked) [Example 027-040]
< 10 | NC(=O)c1cc(F)c(NC2CCCCC2N)nc1Nc1cncc(NC(=O)c2cc3ccccc3o2)c1 (centres unmarked) [Example 027-041]

same assay, conditions: read-out: Syk-inhibitory activity (IC50)

IC50 [nM] | Compound
≤ 1000 | CNc1nc(Nc2cc(OC)cc(OC)c2)c(C(N)=O)cc1F [Example 23, 2-(3,5-dimethoxyphenylamino)-5-fluoro-6-(methylamino)nicotinamide]
≤ 1000 | NC(=O)c1cc(F)c(Nc2cccnc2)nc1Nc1cnc2ccccc2c1 [Example 24, 5-fluoro-6-(pyridin-3-ylamino)-2-(quinolin-3-ylamino)nicotinamide]
